{"source": "patent US7700577B2", "about": "“Carbohydrate based anti-bacterials” (Alchemia Limited, priority 2002, dated 2010)", "key": {"S. aureus": {"test_system": "S. aureus", "assay": "MIC testing, broth microdilution (NCCLS), S. aureus", "format": "cell-based, Staphylococcus aureus", "description": "(§1) The broth microdilution format of the National Committee for Clinical Laboratory Standards (NCCLS) approved standard for susceptibility tests as outlined in M7-A4 “methods for dillution Antimicrobial susceptibility tests for bacteria that grow aerobically; approved standard—fifth edition”, January 2000 was utilized for minimum inhibitory concentration testing in Mueller-Hinton broth. The broth for Streptococcus pyogenes testing was supplemented with 2% laked horse blood. A positive result in initial testing was determined by complete inhibition of macroscopic bacterial growth at a concentration of 128 micrograms per mL after incubation for 16 to 24 hours at 37 degrees C. In the case of Micrococcus luteus, incubation was at 30 degrees C. […] Bacterial Types Are: • SA24 S. aureus after 24 hours exposure • SA48 S. aureus after 48 hours exposure • EC24 E. coli after 24 hours exposure"}, "[1]": {"test_system": "Micrococcus luteus (ATCC272)", "assay": "MIC testing, additional organisms: Micrococcus luteus", "format": "cell-based", "conditions": "incubation at 30 degrees C", "description": "(§2) The broth microdilution format of the National Committee for Clinical Laboratory Standards (NCCLS) approved standard for susceptibility tests as outlined in M7-A4 “methods for dillution Antimicrobial susceptibility tests for bacteria that grow aerobically; approved standard—fifth edition”, January 2000 was utilized for minimum inhibitory concentration testing in Mueller-Hinton broth. The broth for Streptococcus pyogenes testing was supplemented with 2% laked horse blood. A positive result in initial testing was determined by complete inhibition of macroscopic bacterial growth at a concentration of 128 micrograms per mL after incubation for 16 to 24 hours at 37 degrees C. In the case of Micrococcus luteus, incubation was at 30 degrees C.\n(§3) Bacterial Types Are: • SA24 S. aureus after 24 hours exposure • SA48 S. aureus after 48 hours exposure • EC24 E. coli after 24 hours exposure\n(§4) The following compounds were tested against additional organisims with the following results. • 1. Micrococcus luteus (ATCC272) • 2. Staphylococcus aureus (ATCC29213) • 3. Staphylococcus aureus (ATCC43300) MRSA • 4. Enterococcus faecalis (ATCC29212) • 5. Enterococcus faecalis (ATCCS 1299) Vancomycin resistant • 6. Streptococcus pyrogenes (ATCC8668)"}, "[2]": {"test_system": "Staphylococcus aureus (ATCC29213)", "assay": "MIC testing, additional organisms: Staphylococcus aureus ATCC29213", "format": "cell-based", "description": "as §2, §3, §4"}, "[3]": {"test_system": "Enterococcus faecalis (ATCC29212)", "assay": "MIC testing, additional organisms: Enterococcus faecalis ATCC29212", "format": "cell-based", "description": "as §2, §3, §4"}, "[4]": {"test_system": "Enterococcus faecalis (ATCCS 1299) Vancomycin resistant", "assay": "MIC testing, additional organisms: Enterococcus faecalis vancomycin resistant", "format": "cell-based", "description": "as §2, §3, §4"}, "[5]": {"test_system": "Staphylococcus aureus (ATCC43300) MRSA", "assay": "MIC testing, additional organisms: Staphylococcus aureus MRSA", "format": "cell-based", "description": "as §2, §3, §4"}, "E. coli": {"test_system": "E. coli", "assay": "MIC testing, broth microdilution (NCCLS), E. coli", "format": "cell-based", "conditions": "E. coli after 24 hours exposure", "description": "as §1"}, "[6]": {"test_system": "Streptococcus pyrogenes (ATCC8668)", "assay": "MIC testing, additional organisms: Streptococcus pyrogenes", "format": "cell-based", "conditions": "broth supplemented with 2% laked horse blood", "description": "as §2, §3, §4"}}, "data": [{"smiles": "CCCCCCCCCCC(=O)NC1C(CO)OCC(NC(=O)Nc2cccc(C(F)(F)F)c2)C1OC1OC(CO)C(O)C(O)C1NC(=O)Nc1cccc(C(F)(F)F)c1", "note": "(stereo not drawn) [compound 77]", "values": [{"measurement": "SA24 (MIC)", "setting": "S. aureus; S. aureus after 24 hours exposure", "value": "+ (+ indicates an MIC value of less than 128 micrograms per mL)"}, {"measurement": "SA48 (MIC)", "setting": "S. aureus; S. aureus after 48 hours exposure", "value": "+ (+ indicates an MIC value of less than 128 micrograms per mL)"}, {"measurement": "MIC, organism 1", "setting": "[1]", "value": "+ (+ indicates an MIC value of less than 128 micrograms per mL)"}, {"measurement": "MIC, organism 2", "setting": "[2]", "value": "+ (+ indicates an MIC value of less than 128 micrograms per mL)"}, {"measurement": "MIC, organism 4", "setting": "[3]", "value": "+ (+ indicates an MIC value of less than 128 micrograms per mL)"}, {"measurement": "MIC, organism 5", "setting": "[4]", "value": "+ (+ indicates an MIC value of less than 128 micrograms per mL)"}, {"measurement": "MIC, organism 3", "setting": "[5]", "value": "+ (+ indicates an MIC value of less than 128 micrograms per mL)"}, {"measurement": "EC24 (MIC)", "setting": "E. coli", "value": "− (− indicates an MIC of greater then 128 micrograms per mL)"}, {"measurement": "MIC, organism 6", "setting": "[6]", "value": "+ (+ indicates an MIC value of less than 128 micrograms per mL)"}]}]}
